Test results: patent publication US11504385B2, “Proteolysis targeting chimeric molecule, preparation method, and application” (CHINA PHARMACEUTICAL UNIVERSITY, priority 2019, dated 2022)

Columns and labels:
ABL [1] = biological target: T1, ABL (Homo sapiens, UniProt P00519); assay: Simulated light control, ABL level in K562 cells (immunoblotting); format: cell-based; details: 100 nM for 24 hours, then fresh medium
T1 construct: degradation effect of the compound 4C on c-ABL and BCR-ABL proteins in K562 cells; endogenous in cells; host or cells: K562
Procedure: (§1) In order to simulate a light control process, the researchers treated K562 cells with the compound 4C-trans for 24 hours. Then the cells were transferred to fresh media and divided into 2 groups: one group was placed in a dark room (VIS group), and the other group was irradiated with UV after 0, 4, 8, 12, 16, and 24 hours of incubation to simulate the photo-isomerization process (UV group).
(§2) The specific operation method for simulating light control is as follows:
(§3) The compound 4C-trans at a final concentration of 100 nM was added to K562 cells, and the cells were incubated at 37° C. for 24 hours. The medium was washed off, and the cells were washed 2 times with 1*PBS. Then the cells were transferred to fresh 1640 medium (10% FBS, 1*glutamine) for culture, and divided into two groups: one group was placed in a dark room, and the other group was irradiated with UV-C light for 30 min every 4 hours. The cells were collected after transfer and incubation for 0, 4, 8, 16, and 24 hours respectively, and post-treatment of the cells was the same as that of immunoblotting.

HEK293T = assay: Cell viability test, HEK293T; format: cell-based; details: non-BCR-ABL dependent cell line
BCR-ABL fusion protein = biological target: T2, BCR-ABL fusion protein (Homo sapiens, UniProt P00519+P11274+Q96SW2, E27K); assay: Simulated light control, BCR-ABL level in K562 cells (immunoblotting); format: cell-based; details: 100 nM for 24 hours, then fresh medium
T2 construct: By using BCR-ABL and CRBN positive K562 cell lines; endogenous in cells; host or cells: K562
Procedure: as §1, §2, §3

ABL [2] = biological target: T1, ABL; assay: Immunoblotting, degradation of ABL protein in K562 cells; format: cell-based
Procedure: Initially, researchers synthesized a 2C compound (FIG. 2A), which is a small molecule with the shortest joining chain (n=1). By using BCR-ABL and CRBN positive K562 cell lines, degradation of ABL and BCR-ABL proteins in the cells under the action of the compound was tested by immunoblotting. […] Then, the researchers tried to extend the joining chain (increasing the value of n).
In order to test the degradation effect of the compound 4C on c-ABL and BCR-ABL proteins in K562 cells, the researchers performed an immunoblotting experiment. […] In order to exclude the possibility that the compound 4C affected the ABL gene to generate false positive expression, the researchers used RT-qPCR in K562 cells to study the expression of the ABL gene.
The operation method of the immunoblotting experiment is as follows:
K562 cells after administration were incubated for 24 hours.
The medium was aspirated from the culture; the cells were washed with 1*PBS; and the cells were aspirated.
A weak RIPA lysate (100 μL) was added to lyse the cells for 40 min.
The sample was centrifuged at 13000 rpm, 4° C. for 15 min; 80 μl of supernatant was taken and added to 20 μl of loading buffer; the reaction solution was heated at 100° C. for 8 minutes; and the sample was placed on ice and cooled.
[…] of sample was loaded on 10% SDS-PAGE gel. The sample was transferred to a PVDF membrane by a wet process.
A membrane was placed in 25 ml of blocking buffer and blocked at room temperature for 1 hour.
The membrane and the primary antibody (according to the appropriate dilution and diluent recommended in the product description) were placed in 10 ml of primary antibody dilution buffer, and incubated overnight at 4° C. and gently shaken from time to time.
Anti-rabbit IgG, HRP-linked Antibody (#7074, in a ratio of 1:2000) and anti-biotin, HRP-linked Antibody (#7075, in a ratio of 1:1000-1:3000) are diluted with 10 ml of blocking buffer to detect biotinylated protein standards. The membrane was incubated with the diluent, and gently shaken and incubated at room temperature for 1 hour.
A developer solution and the membrane were incubated together for 1 minute, the excess solution was discarded (the membrane remained moist) and the membrane was exposed.
Next, we tested the difference in the activity of different configurations of compound 4C in degradation of ABL and BCR-ABL proteins. […] The operation method of the immunoblotting experiment is the same as above.

K562 cell line = assay: Cell viability test (CellTiter-Glo), K562; format: cell-based
Procedure: (§4) The operation method of the K562 cell viability test is as follows:
(§5) 50 μL of K562, MCF-7, HCT116 and A549 cell suspensions were added to a 96-well plate and incubated for 12 hours. 10 μL of compound was added to the well and incubated for 48 hours. Operation was performed according to a CellTiter-Glo® luminescent cell viability assay kit (Promega). Nonlinear regression analysis data in GraphPad Prism 6 was used.

K562 cells = assay: Anti-K562 cell proliferation activity test (CCK-8); format: cell-based; details: Homo sapiens, 48 hours, read-out: median inhibitory concentration (IC50)
Procedure: The operation method of the anti-K562 cell proliferation activity test is as follows:
100 μL of K562 cell suspension and 10 μL of test compounds of different concentrations were prepared in a 96-well plate. The culture plate was placed in an incubator for incubation for 48 hours (37° C., 5% CO2). 10 μL of CCK-8 solution was added to each well. The culture plate was placed in an incubator for incubation for 1-4 hours. The absorbency was measured at 450 nm with a microplate reader. […] (%)=[A (with drug)−A (blank)]/[A (with 0 drug)−A (blank)]×100, wherein:
A (with drug): the absorbency of the wells containing cells, CCK-8 solution and drug solution
A (blank): the absorbency of wells containing medium and CCK-8 solution but no cells
A (with 0 drug): the absorbency of the wells containing cells and CCK-8 solution but no drug solution

[3] = Photo-isomerization by UV-Vis absorption spectrum; format: physicochemical
Procedure: Then, we explored the photodynamic characteristics of the compound 4C through UV-Vis absorption spectrum. […] In addition, since the compound 4C is a T-type optical switch, the cis configuration underwent self-heating relaxation under dark conditions to transform into the trans configuration, and T½ was about 10 hours at 25° C.

MCF-7 breast cancer = assay: Cell viability test (CellTiter-Glo), MCF-7; format: cell-based; details: non-BCR-ABL dependent tumor cell line
Procedure: as §4, §5

[4] = UV-C 30 min every 4 hours (UV group)
[5] = dark room (VIS group), 0-24 hours

T1 sequence (P00519 whole entry): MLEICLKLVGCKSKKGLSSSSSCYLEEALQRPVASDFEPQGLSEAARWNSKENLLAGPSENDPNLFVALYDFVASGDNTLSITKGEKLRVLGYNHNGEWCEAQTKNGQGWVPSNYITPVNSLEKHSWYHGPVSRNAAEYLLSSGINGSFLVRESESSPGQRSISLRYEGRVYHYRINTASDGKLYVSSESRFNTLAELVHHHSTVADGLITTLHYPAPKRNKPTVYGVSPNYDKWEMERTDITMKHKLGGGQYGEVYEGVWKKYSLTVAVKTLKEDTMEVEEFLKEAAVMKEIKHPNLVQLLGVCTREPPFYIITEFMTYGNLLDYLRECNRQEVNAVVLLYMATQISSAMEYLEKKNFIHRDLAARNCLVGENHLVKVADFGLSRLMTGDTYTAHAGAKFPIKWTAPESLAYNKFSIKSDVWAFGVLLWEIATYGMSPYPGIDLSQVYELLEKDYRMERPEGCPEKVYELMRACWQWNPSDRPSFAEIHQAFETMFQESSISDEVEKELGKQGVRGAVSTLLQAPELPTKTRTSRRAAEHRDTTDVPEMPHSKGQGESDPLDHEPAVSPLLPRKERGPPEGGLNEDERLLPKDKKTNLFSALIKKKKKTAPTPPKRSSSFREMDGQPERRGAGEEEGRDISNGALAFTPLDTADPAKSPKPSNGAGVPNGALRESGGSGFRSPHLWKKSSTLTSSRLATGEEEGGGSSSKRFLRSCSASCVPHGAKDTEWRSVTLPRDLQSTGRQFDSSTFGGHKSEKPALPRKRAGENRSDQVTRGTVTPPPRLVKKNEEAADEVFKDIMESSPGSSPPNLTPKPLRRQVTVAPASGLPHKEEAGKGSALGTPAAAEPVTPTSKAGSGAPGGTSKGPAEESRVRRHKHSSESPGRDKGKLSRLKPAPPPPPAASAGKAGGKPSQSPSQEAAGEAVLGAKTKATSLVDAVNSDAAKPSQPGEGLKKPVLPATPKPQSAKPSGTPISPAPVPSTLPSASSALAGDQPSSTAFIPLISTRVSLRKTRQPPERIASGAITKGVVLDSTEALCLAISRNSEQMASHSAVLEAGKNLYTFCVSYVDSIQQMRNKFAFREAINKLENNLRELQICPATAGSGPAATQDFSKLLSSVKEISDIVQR

## Cc1nc(Nc2ncc(C(=O)Nc3c(C)cccc3Cl)s2)cc(N2CCN(CCCCOc3ccc(/N=N/c4ccc(C(=O)Nc5cccc6c5CN(C5CCC(=O)NC5=O)C6=O)cc4)cc3)CC2)n1 (stereo not drawn) [Compound 4C, (E)-N-(2-chloro-6-methylphenyl)-2-((6-(4-(4-(4-((4-((2-(2,6-dioxopiperidin-3-yl)-1-oxoisoindolin-4-yl)carbamoyl)phenyl)diazenyl)phenoxy)butyl)piperazin-1-yl)-2-methylpyrimidin-4-yl)amino)thiazole-5-carboxamide]
ABL [1]; [4]
  ABL level after washout: increased over time
ABL [1]; [5]
  ABL level after washout: almost disappeared
HEK293T
  effect on cell viability: hardly affects
BCR-ABL fusion protein; [4]
  BCR-ABL level after washout: increased over time
BCR-ABL fusion protein; [5]
  BCR-ABL fusion protein level after washout: remained at a low level
ABL [2]; 250 nM
  time at which ABL reached the maximum degradation: 32 h
ABL [2]; 250 nM, 4 hours of incubation
  ABL level, time-effect: significantly reduced
ABL [2]; 250 nM, after 10 hours
  c-ABL level, time-effect: significantly degraded
ABL [2]; 500 nM, 24 hours of incubation
  ABL protein degraded, dose-effect: almost all
K562 cell line; Homo sapiens, K562 cells, 48 hours, CellTiter-Glo, read-out: median effective concentration (EC50)
  EC50: 28 nM
K562 cell line; versus A549, HCT116, HEK293T, MCF-7
  selectivity for the BCR-ABL dependent K562 cell line: good selectivity
K562 cells
  IC50: 68 nM
[3]; UV irradiation for 1 hour
  transformation from trans to cis configuration (absorbency-time curve at 361 nm): almost completely transformed to the cis configuration
[3]; irradiated with ultraviolet light and white light in turn for 5 times
  reversibility of the photosensitive switch (stability): still relatively stable
MCF-7 breast cancer
  effect on cell viability: hardly affects
